According to patent US20150274657A1, “PYRROLIDINES” (MERCK PATENT GMBH, priority 2012, published 2015):
Like-named read-outs stand apart in the source and are kept apart here.

What was measured:
[1] = molecular target: T1, human Nav1.6 ion channels (Homo sapiens, UniProt Q9UQD0); assay: IonWorks electrophysiological assay on CHO cells expressing human Nav1.6; format: cell-based; details: CHO human Nav1.6 expressing cells
T1 construct: host or cells: CHO
Description: IonWorks electrophysiological assays were conducted to profile compounds for activity on CHO human Nav1.6 ion channels expressing cells (Milipore) using a unique protocol to assess the close (tonic, Pulse 1) and inactivated state inhibition (Pulse 2). The membrane potential is initially held at a hyperpolarized potential (−120 mV) to drive sodium channels into the resting closed state. The membrane is then reset to 0 mV voltage (for 2.5 seconds) following a brief 5 ms hyperpolarization to partially remove inactivation of non-blocked sodium channels; a short 20 ms test voltage step is applied to assess the magnitude of inhibition.

[2] = secondary progressive MS patients; over 2 years; p=0.02; cited from earlier work
[3] = closed (tonic) state inhibition (Pulse 1), read-out: Nav1.6 Tonic
[4] = inactivated state inhibition (Pulse 2), read-out: Nav1.6 Inactivated

T1 sequence (Q9UQD0 whole entry): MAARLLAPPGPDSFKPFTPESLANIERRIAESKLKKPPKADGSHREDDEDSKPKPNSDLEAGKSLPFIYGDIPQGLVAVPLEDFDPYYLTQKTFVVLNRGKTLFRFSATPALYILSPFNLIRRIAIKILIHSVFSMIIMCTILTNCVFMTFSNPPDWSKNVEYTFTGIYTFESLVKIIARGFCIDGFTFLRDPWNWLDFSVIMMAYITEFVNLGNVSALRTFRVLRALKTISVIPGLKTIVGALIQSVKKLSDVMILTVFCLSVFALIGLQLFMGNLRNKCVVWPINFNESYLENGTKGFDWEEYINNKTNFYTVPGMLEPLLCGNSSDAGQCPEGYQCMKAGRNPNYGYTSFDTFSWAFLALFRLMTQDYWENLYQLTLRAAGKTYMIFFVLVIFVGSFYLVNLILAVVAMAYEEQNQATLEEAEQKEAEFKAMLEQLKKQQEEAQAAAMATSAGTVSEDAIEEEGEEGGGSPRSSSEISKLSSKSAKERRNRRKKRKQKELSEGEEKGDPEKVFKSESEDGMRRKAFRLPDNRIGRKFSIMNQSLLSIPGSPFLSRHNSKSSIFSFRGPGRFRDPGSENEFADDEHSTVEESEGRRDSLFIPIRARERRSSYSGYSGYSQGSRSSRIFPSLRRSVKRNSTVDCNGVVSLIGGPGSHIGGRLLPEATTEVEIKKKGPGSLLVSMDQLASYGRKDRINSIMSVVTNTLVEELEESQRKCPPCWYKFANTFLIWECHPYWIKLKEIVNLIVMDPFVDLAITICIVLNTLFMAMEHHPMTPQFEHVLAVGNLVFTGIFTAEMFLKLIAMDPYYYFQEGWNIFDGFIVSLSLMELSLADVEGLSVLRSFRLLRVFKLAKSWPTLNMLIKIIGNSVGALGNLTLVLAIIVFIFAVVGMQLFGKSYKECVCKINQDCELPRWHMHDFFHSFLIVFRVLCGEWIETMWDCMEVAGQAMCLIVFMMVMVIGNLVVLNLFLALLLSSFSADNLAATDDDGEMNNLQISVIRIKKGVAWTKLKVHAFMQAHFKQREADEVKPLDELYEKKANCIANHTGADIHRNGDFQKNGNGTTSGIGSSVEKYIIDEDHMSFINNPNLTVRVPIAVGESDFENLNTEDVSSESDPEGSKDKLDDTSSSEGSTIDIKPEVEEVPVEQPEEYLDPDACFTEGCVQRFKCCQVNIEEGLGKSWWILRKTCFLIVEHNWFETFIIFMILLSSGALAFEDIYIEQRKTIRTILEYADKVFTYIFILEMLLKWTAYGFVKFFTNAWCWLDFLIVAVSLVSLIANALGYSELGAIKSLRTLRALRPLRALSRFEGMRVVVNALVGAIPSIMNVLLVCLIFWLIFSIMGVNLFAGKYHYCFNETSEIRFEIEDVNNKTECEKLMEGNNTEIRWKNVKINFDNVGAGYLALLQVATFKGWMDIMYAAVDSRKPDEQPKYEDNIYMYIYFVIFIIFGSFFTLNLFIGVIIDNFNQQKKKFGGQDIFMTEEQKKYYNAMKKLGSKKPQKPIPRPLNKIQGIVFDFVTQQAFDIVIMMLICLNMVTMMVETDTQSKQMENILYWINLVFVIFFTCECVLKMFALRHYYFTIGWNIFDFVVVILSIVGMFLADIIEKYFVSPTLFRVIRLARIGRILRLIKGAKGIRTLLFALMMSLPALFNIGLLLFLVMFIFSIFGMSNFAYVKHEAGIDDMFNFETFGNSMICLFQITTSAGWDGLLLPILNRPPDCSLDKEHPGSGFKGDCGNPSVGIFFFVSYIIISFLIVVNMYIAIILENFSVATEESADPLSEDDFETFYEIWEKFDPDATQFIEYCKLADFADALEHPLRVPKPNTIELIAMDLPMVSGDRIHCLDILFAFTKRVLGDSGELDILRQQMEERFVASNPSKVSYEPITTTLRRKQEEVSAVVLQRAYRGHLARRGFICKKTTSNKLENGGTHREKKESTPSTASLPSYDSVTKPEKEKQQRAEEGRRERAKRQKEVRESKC

Row | IC50 [1, 3] | IC50 [1, 4] | SMILES | deterioration of the timed 25-foot walk [2]
1 | 14100 nM | 615 nM | Cc1ccccc1CNC(=O)C1(C)CCN(Cc2cccc(Oc3ccccc3)c2)C1 (racemic) [Example 9, (±) 3-methyl-1-(3-phenoxy-benzyl)-pyrrolidine-3-carboxylic acid 2-methyl-benzylamide] | 
2 | > 33000 nM | 228 nM | CC1(C(=O)NCc2ccccn2)CCN(Cc2cccc(Oc3ccccc3)c2)C1 (racemic) [Example 12, (±) 3-methyl-1-(3-phenoxy-benzyl)-pyrrolidine-3-carboxylic acid (pyridin-2-ylmethyl)-amide] | 
3 | 15500 nM | 733 nM | CC1(C(=O)N2CCOCC2)CCN(Cc2cccc(Oc3ccccc3)c2)C1 (racemic) [Example 15, (±) [3-methyl-1-(3-phenoxy-benzyl)-pyrrolidin-3-yl]-morpholin-4-yl-methanone] | 
4 | 13100 nM | 409 nM | CC1(C(=O)NCc2cccnc2)CCN(Cc2cccc(Oc3ccccc3)c2)C1 (racemic) [Example 16, (±) 3-methyl-1-(3-phenoxy-benzyl)-pyrrolidine-3-carboxylic acid (pyridin-3-ylmethyl)-amide] | 
5 | 16400 nM | 940 nM | CC1(C(=O)NCc2ccncc2)CCN(Cc2cccc(Oc3ccccc3)c2)C1 (racemic) [Example 17, (±) 3-methyl-1-(3-phenoxy-benzyl)-pyrrolidine-3-carboxylic acid (pyridin-4-ylmethyl)-amide] | 
6 | 23100 nM | 621 nM | CCNC(=O)C1CCN(Cc2cccc(Oc3ccccc3)c2)C1 (racemic) [Example 18, (±) 1-(3-phenoxy-benzyl)-pyrrolidine-3-carboxylic acid ethylamide] | 
7 | 30300 nM | 1180 nM | COCCNC(=O)C1CCN(Cc2cccc(Oc3ccccc3)c2)C1 (racemic) [Example 19, (±) 1-(3-phenoxy-benzyl)-pyrrolidine-3-carboxylic acid (2-methoxy-ethyl)-amide] | 
8 | 10600 nM | 771 nM | CC1(C(=O)NCCc2ccccn2)CCN(Cc2cccc(Oc3ccccc3)c2)C1 (racemic) [Example 26, (±) 3-methyl-1-(3-phenoxy-benzyl)-pyrrolidine-3-carboxylic acid (2-pyridin-2-v1-ethyl)-amide] | 
9 | > 33000 nM | 1440 nM | CC1CN(C(=O)C2CCN(Cc3cccc(Oc4ccccc4)c3)C2)CCO1 (racemic) [Example 27, (±) (2-methyl-morpholin-4-yl)-[1-(3-phenoxy-benzyl)-pyrrolidin-3-yl]-methanone] | 
10 | 19600 nM | 1170 nM | O=C(NCCc1ccccn1)C1CCN(Cc2cccc(Oc3ccccc3)c2)C1 (racemic) [Example 28, (±) 1-(3-phenoxy-benzyl)-pyrrolidine-3-carboxylic acid (2-pyridin-2-yl-ethyl)-amide] | 
11 | > 33000 nM | 1890 nM | COC1CCCN(C(=O)C2CCN(Cc3cccc(Oc4ccccc4)c3)C2)C1 (racemic) [Example 29, (±) (3-methoxy-piperidin-1-yl)-[1-(3-phenoxy-benzyl)-pyrrolidin-3-yl]-methanone] | 
12 | > 33000 nM | 1090 nM | COC1CCN(C(=O)C2CCN(Cc3cccc(Oc4ccccc4)c3)C2)CC1 (racemic) [Example 30, (±) (4-methoxy-piperidin-1-yl)-[1-(3-phenoxy-benzyl)-pyrrolidin-3-yl]-methanone] | 
13 | > 33000 nM | 1520 nM | COC1CCN(C(=O)C2CCN(Cc3cccc(Oc4ccccc4)c3)C2)C1 (racemic) [Example 33, (±) (3-methoxy-pyrrolidin-1-yl)-[1-(3-phenoxy-benzyl)-Pyrrolidin-3-yl]-methanone] | 
14 | 16200 nM | 353 nM | O=C(NCc1ccccn1)C1CCN(Cc2cccc(Oc3ccccc3)c2)C1 (racemic) [Example 34, (±) 1-(3-phenoxy-benzyl)-pyrrolidine-3-carboxylic acid (Pyridin-2-ylmethyl)-amide] | 
15 | 20000 nM | 808 nM | CCNC(=O)[C@@]1(C)CCN(Cc2cccc(Oc3ccccc3)c2)C1 (single isomer, unassigned) [Example 10] | 
16 | 15700 nM | 825 nM | CCNC(=O)[C@]1(C)CCN(Cc2cccc(Oc3ccccc3)c2)C1 (single isomer, unassigned) [Example 11] | 
17 | 15500 nM | 993 nM | COCCNC(=O)C1(C)CCN(Cc2cccc(Oc3ccccc3)c2)C1 (stereo not shown) [Example 2] | 
18 | 9420 nM | 1030 nM | CCCNC(=O)C1(C)CCN(Cc2cccc(Oc3ccccc3)c2)C1 (stereo not shown) [Example 4] | 
19 | 29900 nM | 1300 nM | O=C(NCc1cccnc1)[C@@H]1CCN(Cc2cccc(Oc3ccccc3)c2)C1 [Example 24, (R)-1(3-phenoxy-benzyl)-pyrrolidine-3-carboxylic acid (pyridin-3-ylmethyl)-amide] | 

Second part, the compound before the results:

Row | SMILES | IC50 [1, 3] | IC50 [1, 4] | deterioration of the timed 25-foot walk [2]
20 | CC1(C(=O)N2CCc3cccc(C(F)(F)F)c3C2)CCN(Cc2cccc(Oc3ccccc3)c2)C1 (racemic) [Example 13, (±) [3-methyl-1-(3-phenoxy-benzyl)-pyrrolidin-3-yl]-(8-trifluoromethyl-3,4-dihydro-1H-isoquinolin-2-yl)-methanone] | > 33000 nM | 1970 nM | 
21 | CN(Cc1ccccn1)C(=O)C1(C)CCN(Cc2cccc(Oc3ccccc3)c2)C1 (racemic) [Example 14, (±) 3-methyl-1-(3-phenoxy-benzyl)-pyrrolidine-3-carboxylic acid methyl-pyridin-2-ylmethyl-amide] | 30300 nM | 473 nM | 
22 | CN1CCN(C(=O)C2(C)CCN(Cc3cccc(Oc4ccccc4)c3)C2)CC1 (racemic) [Example 20, (±) [3-methyl-1-(3-phenoxy-benzyl)-pyrrolidin-3-yl]-(4-methyl-piperazin-1-yl)-methanone] | 8940 nM | 1910 nM | 
23 | CC1(C(=O)NCc2ccccn2)CCN(Cc2csc(-c3ccccc3)n2)C1 (racemic) [Example 21, (±) 3-methyl-1-(2-phenyl-thiazol-4-ylmethyl)-pyrrolidine-3-carboxylic acid (pyridin-2-ylmethyl)-amide] | > 33000 nM | 1080 nM | 
24 | COC(=O)C1(C)CCN(Cc2cccc(OCC(C)C)c2)C1 (racemic) [Example 22, (±) 1-(3-isobutoxy-benzyl)-3-methyl-pyrrolidine-3-carboxylic acid methyl ester] | > 33000 nM | 994 nM | 
25 | CC(C)COc1cccc(CN2CCC(C)(C(=O)NCc3ccccn3)C2)c1 (racemic) [Example 23, (±) 1-(3-isobutoxy-benzyl)-3-methyl-pyrrolidine-3-carboxylic acid (pyridin-2-ylmethyl)-amide] | > 33000 nM | 445 nM | 
26 | CC(C)COc1cccc(CN2CCC(C)(C(=O)N(C)Cc3ccccn3)C2)c1 (racemic) [Example 25, (±) 1-(3-isobutoxy-benzyl)-3-methyl-pyrrolidine-3-carboxylic acid methyl-pyridin-2-ylmethyl-amide] | 19900 nM | 752 nM | 
27 | CC1(C(=O)N2Cc3cccnc3C2)CCN(Cc2cccc(Oc3ccccc3)c2)C1 (racemic) [Example 31, (±) (5,7-dihydro-pyrrolo[3,4-b]pyridin-6-yl)-[3-methyl-1-(3-phenoxy-benzyl)-pyrrolidin-3-yl]-methanone] | > 33000 nM | 1740 nM | 
28 | CC1(C(=O)N2CCc3cccnc3C2)CCN(Cc2cccc(Oc3ccccc3)c2)C1 (racemic) [Example 32, (±) (5,8-dihydro-6H-[1,7]naphthyridin-7-yl)-[3-methyl-1-(3-phenoxy-benzyl)-pyrrolidin-3-yl]-methanone] | > 33000 nM | 1670 nM | 
29 | CCNC(=O)C1(C)CCN(Cc2ccc(-c3ccccc3)cc2)C1 (stereo not shown) [Example 1] | 21400 nM | 1770 nM | 
30 | CCCNC(=O)C1(C)CCN(Cc2ccc(-c3ccccc3)o2)C1 (stereo not shown) [Example 5] | 30700 nM | 785 nM | 
31 | CCCNC(=O)C1(C)CCN(Cc2ccc(OC)c3ccccc23)C1 (stereo not shown) [Example 6] | 23400 nM | 1860 nM | 
32 | CCCNC(=O)C1(C)CCN(Cc2cccc(OC(=O)c3ccccc3)c2)C1 (stereo not shown) [Example 7] | > 33000 nM | 1610 nM | 
33 | CCCNC(=O)C1(C)CCN(Cc2csc(-c3ccc(Cl)cc3)n2)C1 (stereo not shown) [Example 8] | 14800 nM | 1030 nM | 
34 | Nc1nnc(-c2cccc(Cl)c2Cl)c(N)n1 [Lamotrigine] |  |  | reduced the deterioration of the timed 25-foot walk
